From patent publication US6653455B1, “Crystallization of doxorubicin hydrochloride” (Mercian Corporation, priority 1998, dated 2003)
Where a name gives a salt, the structure may show the parent alone.

Assay: Hygroscopicity, cup method (weight change)
Format: physicochemical
Settings: weight-increasing rate, 25° C., 50 to 60% RH, 15 minutes; crystals dried at 40° C. under vacuum; hydrochloride
Procedure: Determined by the following cup method. To be specific, about 15 to 20 mg of the sample was put in a cylindrical cup having a diameter of 6 mm and a depth of 6 mm and left standing at a fixed temperature (25° C.) and relative humidity (50 to 60% RH) for 15 minutes to measure a weight change, whereby the hygroscopicity was evaluated.
In the following respective examples, a weight-increasing rate of 0.40% or more is shown by an evaluation criterion that the hygroscopicity is large (−); a weight-increasing rate of 0.20% or more and less than 0.40% is shown by an evaluation criterion that the hygroscopicity is ;intermediate (±); and a weight-increasing rate of less than 0.20% is shown by an evaluation criterion that the hygroscopicity is small: (+).
In the case of COc1cccc2c1C(=O)c1c(O)c3c(c(O)c1C2=O)C[C@@](O)(C(=O)CO)C[C@@H]3O[C@H]1C[C@H](N)[C@H](O)[C@H](C)O1 [Example 56, doxorubicin hydrochloride], the Hygroscopicity is reported as “+ (a weight-increasing rate of less than 0.20% is shown by an evaluation criterion that the hygroscopicity is small: (+))”. For COc1cccc2c1C(=O)c1c(O)c3c(c(O)c1C2=O)C[C@@](O)(C(=O)CO)C[C@@H]3O[C@H]1C[C@H](N)[C@H](O)[C@H](C)O1 [Example 28, doxorubicin hydrochloride], the Hygroscopicity was “+ (a weight-increasing rate of less than 0.20% is shown by an evaluation criterion that the hygroscopicity is small: (+))”. In the case of COc1cccc2c1C(=O)c1c(O)c3c(c(O)c1C2=O)C[C@@](O)(C(=O)CO)C[C@@H]3O[C@H]1C[C@H](N)[C@H](O)[C@H](C)O1 [Example 40, doxorubicin hydrochloride], the Hygroscopicity is reported as “± (a weight-increasing rate of 0.20% or more and less than 0.40% is shown by an evaluation criterion that the hygroscopicity is ;intermediate (±))”. For COc1cccc2c1C(=O)c1c(O)c3c(c(O)c1C2=O)C[C@@](O)(C(=O)CO)C[C@@H]3O[C@H]1C[C@H](N)[C@H](O)[C@H](C)O1 [Example 21, doxorubicin hydrochloride], the Hygroscopicity was “+ (a weight-increasing rate of less than 0.20% is shown by an evaluation criterion that the hygroscopicity is small: (+))”. With COc1cccc2c1C(=O)c1c(O)c3c(c(O)c1C2=O)C[C@@](O)(C(=O)CO)C[C@@H]3O[C@H]1C[C@H](N)[C@H](O)[C@H](C)O1 [Example 47, doxorubicin hydrochloride] the Hygroscopicity was “± (a weight-increasing rate of 0.20% or more and less than 0.40% is shown by an evaluation criterion that the hygroscopicity is ;intermediate (±))”. In the case of COc1cccc2c1C(=O)c1c(O)c3c(c(O)c1C2=O)C[C@@](O)(C(=O)CO)C[C@@H]3O[C@H]1C[C@H](N)[C@H](O)[C@H](C)O1 [Example 42, doxorubicin hydrochloride], the Hygroscopicity is reported as “+ (a weight-increasing rate of less than 0.20% is shown by an evaluation criterion that the hygroscopicity is small: (+))”. With COc1cccc2c1C(=O)c1c(O)c3c(c(O)c1C2=O)C[C@@](O)(C(=O)CO)C[C@@H]3O[C@H]1C[C@H](N)[C@H](O)[C@H](C)O1 [Example 4, doxorubicin hydrochloride] the Hygroscopicity was “− (a weight-increasing rate of 0.40% or more is shown by an evaluation criterion that the hygroscopicity is large (−))”. For COc1cccc2c1C(=O)c1c(O)c3c(c(O)c1C2=O)C[C@@](O)(C(=O)CO)C[C@@H]3O[C@H]1C[C@H](N)[C@H](O)[C@H](C)O1 [Example 38, doxorubicin hydrochloride], the Hygroscopicity was “+ (a weight-increasing rate of less than 0.20% is shown by an evaluation criterion that the hygroscopicity is small: (+))”. For COc1cccc2c1C(=O)c1c(O)c3c(c(O)c1C2=O)C[C@@](O)(C(=O)CO)C[C@@H]3O[C@H]1C[C@H](N)[C@H](O)[C@H](C)O1 [Example 34, doxorubicin hydrochloride], the Hygroscopicity was “± (a weight-increasing rate of 0.20% or more and less than 0.40% is shown by an evaluation criterion that the hygroscopicity is ;intermediate (±))”. For COc1cccc2c1C(=O)c1c(O)c3c(c(O)c1C2=O)C[C@@](O)(C(=O)CO)C[C@@H]3O[C@H]1C[C@H](N)[C@H](O)[C@H](C)O1 [Example 59, doxorubicin hydrochloride], the Hygroscopicity was “− (a weight-increasing rate of 0.40% or more is shown by an evaluation criterion that the hygroscopicity is large (−))”. For COc1cccc2c1C(=O)c1c(O)c3c(c(O)c1C2=O)C[C@@](O)(C(=O)CO)C[C@@H]3O[C@H]1C[C@H](N)[C@H](O)[C@H](C)O1 [Example 24, doxorubicin hydrochloride], the Hygroscopicity was “+ (a weight-increasing rate of less than 0.20% is shown by an evaluation criterion that the hygroscopicity is small: (+))”.

Assay: Average particle diameter, microscopic method (Heywood circle-corresponding diameter)
Format: physicochemical
Settings: 10 typical crystals on photograph, hydrochloride
Source text: The average particle diameter is shown by a diameter of a circle having the same area as an injected area of the particle, a so-called Heywood diameter (circle-corresponding diameter) according to a microscopic method (injected image). A small amount of the crystals was put on a slide glass, and 1 to 2 drops of a hydrophilic surfactant (sesquioleic acid sorbitan) were fallen thereon to disperse them. It was photographed by means of a polarization microscope (photographing lens: 3.3 magnifications, objective lens: 20 magnifications) equipped with a photographing device. Optional 10 pieces of the typical crystals were selected on the photograph to measure a long diameter and a short diameter thereof An (projected) area of the particle was shown by long diameter×short diameter, and the particle diameter was shown by a diameter of a circle having the same area as that obtained above.
With COc1cccc2c1C(=O)c1c(O)c3c(c(O)c1C2=O)C[C@@](O)(C(=O)CO)C[C@@H]3O[C@H]1C[C@H](N)[C@H](O)[C@H](C)O1 [Example 56, doxorubicin hydrochloride] the Average particle diameter was 37 μm. For COc1cccc2c1C(=O)c1c(O)c3c(c(O)c1C2=O)C[C@@](O)(C(=O)CO)C[C@@H]3O[C@H]1C[C@H](N)[C@H](O)[C@H](C)O1 [Example 28, doxorubicin hydrochloride], the Average particle diameter was 37 μm. With COc1cccc2c1C(=O)c1c(O)c3c(c(O)c1C2=O)C[C@@](O)(C(=O)CO)C[C@@H]3O[C@H]1C[C@H](N)[C@H](O)[C@H](C)O1 [Example 40, doxorubicin hydrochloride] the Average particle diameter was 18 μm. Compound COc1cccc2c1C(=O)c1c(O)c3c(c(O)c1C2=O)C[C@@](O)(C(=O)CO)C[C@@H]3O[C@H]1C[C@H](N)[C@H](O)[C@H](C)O1 [Example 21, doxorubicin hydrochloride] has an Average particle diameter of 54 μm. For COc1cccc2c1C(=O)c1c(O)c3c(c(O)c1C2=O)C[C@@](O)(C(=O)CO)C[C@@H]3O[C@H]1C[C@H](N)[C@H](O)[C@H](C)O1 [Example 47, doxorubicin hydrochloride], the Average particle diameter was 60 μm. COc1cccc2c1C(=O)c1c(O)c3c(c(O)c1C2=O)C[C@@](O)(C(=O)CO)C[C@@H]3O[C@H]1C[C@H](N)[C@H](O)[C@H](C)O1 [Example 42, doxorubicin hydrochloride] showed an Average particle diameter of 34 μm. For COc1cccc2c1C(=O)c1c(O)c3c(c(O)c1C2=O)C[C@@](O)(C(=O)CO)C[C@@H]3O[C@H]1C[C@H](N)[C@H](O)[C@H](C)O1 [Example 4, doxorubicin hydrochloride], the Average particle diameter was under 4 μm. In the case of COc1cccc2c1C(=O)c1c(O)c3c(c(O)c1C2=O)C[C@@](O)(C(=O)CO)C[C@@H]3O[C@H]1C[C@H](N)[C@H](O)[C@H](C)O1 [Example 38, doxorubicin hydrochloride], the Average particle diameter is reported as 28 μm. With COc1cccc2c1C(=O)c1c(O)c3c(c(O)c1C2=O)C[C@@](O)(C(=O)CO)C[C@@H]3O[C@H]1C[C@H](N)[C@H](O)[C@H](C)O1 [Example 34, doxorubicin hydrochloride] the Average particle diameter was 23 μm. Compound COc1cccc2c1C(=O)c1c(O)c3c(c(O)c1C2=O)C[C@@](O)(C(=O)CO)C[C@@H]3O[C@H]1C[C@H](N)[C@H](O)[C@H](C)O1 [Example 59, doxorubicin hydrochloride] has an Average particle diameter of under 4 μm. Work on COc1cccc2c1C(=O)c1c(O)c3c(c(O)c1C2=O)C[C@@](O)(C(=O)CO)C[C@@H]3O[C@H]1C[C@H](N)[C@H](O)[C@H](C)O1 [Example 24, doxorubicin hydrochloride] yielded an Average particle diameter of 51 μm.

Assay: Solubility test (dissolving time in water)
Format: physicochemical
Settings: 50 mg sample in 5 ml water, 25° C., about 600 rounds/minute stirring, time until completely dissolved; hydrochloride
Procedure: A beaker of 20 ml (minor diameter: 30 mm) was charged with 5 ml of water and then 50 mg of a DOX.HCl crystal sample, and the sample was stirred at 25° C. and about 600 rounds/minute by means of a magnetic stirrer (diameter 6 mm×length 10 mm). Time consumed until the sample was completely dissolved was measured wile observing the dissolving state every 30 seconds with naked eyes.
The solubility test described above was carried out for a DXR.USP standard product (Lot J) (average particle diameter: 28 μm) as comparison and Examples 2, 46,51, 55, 56, 57 and 58, and the results thereof are shown in Table III.
In the case of COc1cccc2c1C(=O)c1c(O)c3c(c(O)c1C2=O)C[C@@](O)(C(=O)CO)C[C@@H]3O[C@H]1C[C@H](N)[C@H](O)[C@H](C)O1 [Example 56, doxorubicin hydrochloride], the Dissolving time is reported as 1.5 to 2 min.
